Source: article PMC5218480 (PLoS ONE, 2017)

System: MV-4-11 cells
Experiment: Gene expression microarray analysis (Affymetrix PrimeView) and GSEA
Type: cell-based, human
Design: RFU PODN (11730768_x_at) / Fold change /veh PODN (11730768_x_at) / RFU LINC00158 (11744669_a_at) / Fold change /veh LINC00158 (11744669_a_at) / RFU DUSP10 (11751237_a_at) / Fold change /veh DUSP10 (11751237_a_at) / RFU ID3 (11757404_x_at) / Fold change /veh ID3 (11757404_x_at) / RFU PLEKHG5 (11737974_s_at) / Fold change /veh PLEKHG5 (11737974_s_at) / RFU LRRC4B (11730491_at) / Fold change /veh LRRC4B (11730491_at) / RFU GIMAP4 (11747438_a_at) / Fold change /veh GIMAP4 (11747438_a_at) / RFU KRT8 (11758183_x_at) / Fold change /veh KRT8 (11758183_x_at) / RFU CNN1 (11734310_a_at) / Fold change /veh CNN1 (11734310_a_at) / RFU VPS37D (11726825_at) / Fold change /veh VPS37D (11726825_at) / RFU C10orf10 (11716522_x_at) / Fold change /veh C10orf10 (11716522_x_at) / RFU KIR2DL2 /// KIR2DL4 /// KIR2DL5A /// KIR2DL5B /// KIR2DS1 /// KIR2DS2 /// KIR2DS3 /// KIR2DS4 /// KIR3DL3 /// KIR3DL3 /// KIR3DS1 (11738374_at) / Fold change /veh KIR2DL2 /// KIR2DL4 /// KIR2DL5A /// KIR2DL5B /// KIR2DS1 /// KIR2DS2 /// KIR2DS3 /// KIR2DS4 /// KIR3DL3 /// KIR3DL3 /// KIR3DS1 (11738374_at) / RFU C1QL1 (11718748_at) / Fold change /veh C1QL1 (11718748_at) / RFU TMPRSS4 (11747572_a_at) / Fold change /veh TMPRSS4 (11747572_a_at) / RFU HAMP (11756126_x_at) / Fold change /veh HAMP (11756126_x_at) / RFU RNFT2 (11725882_a_at) / Fold change /veh RNFT2 (11725882_a_at) / RFU NR4A2 (11747474_a_at) / Fold change /veh NR4A2 (11747474_a_at) / RFU ABCC12 (11746883_a_at) / Fold change /veh ABCC12 (11746883_a_at) / RFU TMEM136 (11760407_x_at) / Fold change /veh TMEM136 (11760407_x_at) / RFU CLDN22 /// WWC2 (11732394_at) / Fold change /veh CLDN22 /// WWC2 (11732394_at) / RFU HLA-DPB1 (11760878_x_at) / Fold change /veh HLA-DPB1 (11760878_x_at) / RFU SPINT1 (11716480_a_at) / Fold change /veh SPINT1 (11716480_a_at) / RFU GAP43 (11754022_s_at) / Fold change /veh GAP43 (11754022_s_at) / RFU A4GNT (11735810_at) / Fold change /veh A4GNT (11735810_at) / RFU PRB3 (11715151_x_at) / Fold change /veh PRB3 (11715151_x_at) / RFU TUBB4B (11761932_at) / Fold change /veh TUBB4B (11761932_at) / RFU CAPN14 (11732068_a_at) / Fold change /veh CAPN14 (11732068_a_at) / RFU TMCC2 (11721928_a_at) / Fold change /veh TMCC2 (11721928_a_at) / RFU IRGQ (11745062_a_at) / Fold change /veh IRGQ (11745062_a_at) / RFU FAM174B (11720279_a_at) / Fold change /veh FAM174B (11720279_a_at) / RFU TMPRSS4 (11748680_a_at) / Fold change /veh TMPRSS4 (11748680_a_at) / RFU FAM212B (11763350_a_at) / Fold change /veh FAM212B (11763350_a_at) / RFU PLEKHG5 (11743358_a_at) / Fold change /veh PLEKHG5 (11743358_a_at) / RFU ZSCAN30 (11745921_a_at) / Fold change /veh ZSCAN30 (11745921_a_at) / RFU CMKLR1 (11741424_a_at) / Fold change /veh CMKLR1 (11741424_a_at) / RFU LOC101060620 /// MAPK8IP1 (11723275_at) / Fold change /veh LOC101060620 /// MAPK8IP1 (11723275_at) / RFU SPTSSB (11747773_x_at) / Fold change /veh SPTSSB (11747773_x_at) / RFU PRSS12 (11739890_at) / Fold change /veh PRSS12 (11739890_at) / RFU BIN1 (11741810_x_at) / Fold change /veh BIN1 (11741810_x_at) / RFU WNT11 (11732464_a_at) / Fold change /veh WNT11 (11732464_a_at) / RFU C10orf10 (11716521_a_at) / Fold change /veh C10orf10 (11716521_a_at) / RFU C5orf56 (11738089_at) / Fold change /veh C5orf56 (11738089_at) / RFU CYB561 (11721691_x_at) / Fold change /veh CYB561 (11721691_x_at) / RFU ANKRD19P (11752326_a_at) / Fold change /veh ANKRD19P (11752326_a_at) / RFU OR2T12 /// OR2T33 /// OR2T8 (11738714_s_at) / Fold change /veh OR2T12 /// OR2T33 /// OR2T8 (11738714_s_at) / RFU VCAN (11748164_a_at) / Fold change /veh VCAN (11748164_a_at) / RFU JSRP1 (11732532_at) / Fold change /veh JSRP1 (11732532_at) / RFU KRTAP10-11 (11738290_x_at) / Fold change /veh KRTAP10-11 (11738290_x_at) / RFU MYO3A (11730013_a_at) / Fold change /veh MYO3A (11730013_a_at) / RFU EBF3 (11725865_a_at) / Fold change /veh EBF3 (11725865_a_at) / RFU CAMK2N1 (11719241_x_at) / Fold change /veh CAMK2N1 (11719241_x_at) / RFU C5orf56 (11738088_a_at) / Fold change /veh C5orf56 (11738088_a_at) / RFU OLFML3 (11715873_a_at) / Fold change /veh OLFML3 (11715873_a_at) / RFU LOC100653217 /// NTM (11731650_a_at) / Fold change /veh LOC100653217 /// NTM (11731650_a_at) / RFU MAPK11 (11762145_a_at) / Fold change /veh MAPK11 (11762145_a_at) / RFU FIZ1 (11724087_x_at) / Fold change /veh FIZ1 (11724087_x_at) / RFU OASL (11726364_x_at) / Fold change /veh OASL (11726364_x_at) / RFU SOX15 (11748057_x_at) / Fold change /veh SOX15 (11748057_x_at) / RFU CD79A (11719716_a_at) / Fold change /veh CD79A (11719716_a_at) / RFU HIST1H1D (11736915_at) / Fold change /veh HIST1H1D (11736915_at) / RFU CASKIN2 (11723855_a_at) / Fold change /veh CASKIN2 (11723855_a_at) / RFU LOC730098 (11760151_x_at) / Fold change /veh LOC730098 (11760151_x_at) / RFU OR4N2 (11742367_at) / Fold change /veh OR4N2 (11742367_at) / RFU PRRT2 (11749266_a_at) / Fold change /veh PRRT2 (11749266_a_at) / RFU SNX32 (11753110_a_at) / Fold change /veh SNX32 (11753110_a_at) / RFU CDHR5 (11726645_a_at) / Fold change /veh CDHR5 (11726645_a_at) / RFU RCAN1 (11760418_a_at) / Fold change /veh RCAN1 (11760418_a_at) / RFU FAM167A (11723789_a_at) / Fold change /veh FAM167A (11723789_a_at) / RFU FAM26E (11764081_at) / Fold change /veh FAM26E (11764081_at) / RFU ISYNA1 (11749810_s_at) / Fold change /veh ISYNA1 (11749810_s_at) / RFU ACY1 (11761880_at) / Fold change /veh ACY1 (11761880_at) / RFU 11764098_at / Fold change /veh 11764098_at / RFU SAMD14 (11745864_x_at) / Fold change /veh SAMD14 (11745864_x_at) / RFU NPB (11741838_a_at) / Fold change /veh NPB (11741838_a_at) / RFU TMPRSS6 (11731388_a_at) / Fold change /veh TMPRSS6 (11731388_a_at) / RFU KRTAP10-2 (11738614_at) / Fold change /veh KRTAP10-2 (11738614_at) / RFU ARHGAP8 /// PRR5-ARHGAP8 (11727945_x_at) / Fold change /veh ARHGAP8 /// PRR5-ARHGAP8 (11727945_x_at) / RFU KRTAP5-7 /// NADSYN1 (11734609_at) / Fold change /veh KRTAP5-7 /// NADSYN1 (11734609_at) / RFU RASL12 (11751679_a_at) / Fold change /veh RASL12 (11751679_a_at) / RFU CDKN2B (11736163_a_at) / Fold change /veh CDKN2B (11736163_a_at) / RFU PRF1 (11729649_at) / Fold change /veh PRF1 (11729649_at) / RFU, ZNF638 /// ZNF638-IT1 / Fold change vs veh, ZNF638 /// ZNF638-IT1 / RFU, PANK3 / Fold change vs veh, PANK3 / RFU, SH3YL1 / Fold change vs veh, SH3YL1 / RFU, ZEB2 / Fold change vs veh, ZEB2 / RFU, NRIP1 / Fold change vs veh, NRIP1 / RFU, PTTG1IP / Fold change vs veh, PTTG1IP / RFU, CAPN2 / Fold change vs veh, CAPN2 / RFU, MED14 / Fold change vs veh, MED14 / RFU, SNORA58 / Fold change vs veh, SNORA58 / RFU, C1orf63 / Fold change vs veh, C1orf63 / RFU, LRRFIP1 / Fold change vs veh, LRRFIP1 / RFU, NDUFAF7 / Fold change vs veh, NDUFAF7 / RFU, SLC12A2 / Fold change vs veh, SLC12A2 / RFU, IBTK / Fold change vs veh, IBTK / RFU, ESF1 / Fold change vs veh, ESF1 / Fold change vs veh, TMEM50B / RFU, TAOK1 / Fold change vs veh, TAOK1 / RFU, ACBD3 / Fold change vs veh, ACBD3 / RFU, TMA16 / Fold change vs veh, TMA16 / RFU, RWDD3 / Fold change vs veh, RWDD3 / RFU, BCAT1 / Fold change vs veh, BCAT1 / RFU, EDEM3 / Fold change vs veh, EDEM3 / RFU, TMEM33 / Fold change vs veh, TMEM33 / RFU, WDR75 / Fold change vs veh, WDR75 / RFU, AHCTF1 / Fold change vs veh, AHCTF1 / RFU, TFRC / Fold change vs veh, TFRC / RFU, ZDHHC17 / Fold change vs veh, ZDHHC17 / RFU, NOM1 / Fold change vs veh, NOM1 / RFU, ARL8B / Fold change vs veh, ARL8B / RFU, ZBTB11 / Fold change vs veh, ZBTB11 / RFU, TAMM41 / Fold change vs veh, TAMM41 / RFU, KIAA1704 /// LOC100996395 / Fold change vs veh, KIAA1704 /// LOC100996395 / RFU, ING1 / Fold change vs veh, ING1 / RFU, TRMT61B / Fold change vs veh, TRMT61B / RFU, FUBP3 / Fold change vs veh, FUBP3 / RFU, TP53 / Fold change vs veh, TP53 / RFU, TNKS2 / Fold change vs veh, TNKS2 / RFU, ZFP14 / Fold change vs veh, ZFP14 / RFU, ACTR2 / Fold change vs veh, ACTR2 / RFU, PPP3R1 / Fold change vs veh, PPP3R1 / RFU, PIK3R1 / Fold change vs veh, PIK3R1 / RFU, HNRNPA1 / Fold change vs veh, HNRNPA1 / RFU, RNF170 / Fold change vs veh, RNF170 / RFU, ZNF28 / Fold change vs veh, ZNF28 / RFU, RNGTT / Fold change vs veh, RNGTT / RFU, OGT / Fold change vs veh, OGT / RFU, BRD1 / Fold change vs veh, BRD1 / RFU, MARS / Fold change vs veh, MARS / RFU, ZNF655 / Fold change vs veh, ZNF655 / RFU, FAHD1 / Fold change vs veh, FAHD1 / RFU, BDP1 / Fold change vs veh, BDP1 / RFU, LRRCC1 / Fold change vs veh, LRRCC1 / RFU, ARID1A / Fold change vs veh, ARID1A / RFU, ZNF146 / Fold change vs veh, ZNF146 / RFU, ZNF330 / Fold change vs veh, ZNF330 / RFU, GPN3 / Fold change vs veh, GPN3 / RFU, C9orf123 / Fold change vs veh, C9orf123 / RFU, N4BP2L2 / Fold change vs veh, N4BP2L2 / RFU, ARFIP1 / Fold change vs veh, ARFIP1 / RFU, FAM179B / Fold change vs veh, FAM179B / RFU, BCL10 / Fold change vs veh, BCL10 / RFU, UHRF1BP1L / Fold change vs veh, UHRF1BP1L / RFU, BET1 / Fold change vs veh, BET1 / RFU, CNOT2 / Fold change vs veh, CNOT2 / RFU, ZNF268 / Fold change vs veh, ZNF268 / Fold change vs veh, ZNF507 / RFU, DGCR2 / Fold change vs veh, DGCR2 / RFU, WDSUB1 / Fold change vs veh, WDSUB1 / Fold change vs veh, HSP90B1 /// MIR3652 / RFU, ADSS / Fold change vs veh, ADSS / RFU, GK / Fold change vs veh, GK / RFU, ZNF148 / Fold change vs veh, ZNF148 / RFU, TAF9 / Fold change vs veh, TAF9 / RFU, SLC1A5 / Fold change vs veh, SLC1A5 / RFU, SLMO2 / Fold change vs veh, SLMO2 / RFU, ABCC4 / Fold change vs veh, ABCC4 / RFU, LOC101060439 /// RAP1B / Fold change vs veh, LOC101060439 /// RAP1B / RFU, RFX7 / Fold change vs veh, RFX7 / RFU, GTPBP10 / Fold change vs veh, GTPBP10 / RFU, CNEP1R1 / Fold change vs veh, CNEP1R1 / RFU, BIVM-ERCC5 /// ERCC5 / Fold change vs veh, BIVM-ERCC5 /// ERCC5 / RFU, ILF3 / Fold change vs veh, ILF3 / RFU 11762660_at / Fold change /veh 11762660_at / RFU VCAN (11757783_s_at) / Fold change /veh VCAN (11757783_s_at) / RFU DDX43 (11728927_at) / Fold change /veh DDX43 (11728927_at) / RFU KRT8 (11758188_x_at) / Fold change /veh KRT8 (11758188_x_at) / RFU NKD1 (11759106_at) / Fold change /veh NKD1 (11759106_at) / RFU SRD5A1 (11742802_a_at) / Fold change /veh SRD5A1 (11742802_a_at) / RFU TPSAB1 /// TPSB2 (11721975_s_at) / Fold change /veh TPSAB1 /// TPSB2 (11721975_s_at) / RFU GSTM3 (11746129_a_at) / Fold change /veh GSTM3 (11746129_a_at) / RFU IL23R (11737362_x_at) / Fold change /veh IL23R (11737362_x_at) / RFU TMEM51 (11727254_a_at) / Fold change /veh TMEM51 (11727254_a_at) / RFU PIWIL2 (11732686_x_at) / Fold change /veh PIWIL2 (11732686_x_at) / RFU ORM1 (11744905_x_at) / Fold change /veh ORM1 (11744905_x_at) / RFU CCDC152 (11743942_at) / Fold change /veh CCDC152 (11743942_at) / RFU ECM1 (11717891_a_at) / Fold change /veh ECM1 (11717891_a_at) / RFU IL23R (11748794_a_at) / Fold change /veh IL23R (11748794_a_at) / RFU TNFAIP8L3 (11732012_x_at) / Fold change /veh TNFAIP8L3 (11732012_x_at) / RFU MBOAT4 (11741988_at) / Fold change /veh MBOAT4 (11741988_at) / RFU 11764193_at / Fold change /veh 11764193_at / RFU TMEM53 (11763286_at) / Fold change /veh TMEM53 (11763286_at) / RFU MAGEB2 (11727129_at) / Fold change /veh MAGEB2 (11727129_at) / RFU TMEM200A (11744735_a_at) / Fold change /veh TMEM200A (11744735_a_at) / RFU CCDC152 (11751479_a_at) / Fold change /veh CCDC152 (11751479_a_at) / RFU FAM211A (11726209_a_at) / Fold change /veh FAM211A (11726209_a_at) / RFU RGS16 (11746705_a_at) / Fold change /veh RGS16 (11746705_a_at) / RFU VCAN (11755009_s_at) / Fold change /veh VCAN (11755009_s_at) / RFU RHOB (11743442_s_at) / Fold change /veh RHOB (11743442_s_at) / RFU RGS16 (11720943_a_at) / Fold change /veh RGS16 (11720943_a_at) / RFU RGS16 (11720944_at) / Fold change /veh RGS16 (11720944_at) / RFU, VPS4B / Fold change vs veh, VPS4B / RFU, CREB1 / Fold change vs veh, CREB1 / RFU, DNAJC13 / Fold change vs veh, DNAJC13 / RFU, GNAQ / Fold change vs veh, GNAQ / RFU, CDK5R1 / Fold change vs veh, CDK5R1 / RFU, ZRANB3 / Fold change vs veh, ZRANB3 / RFU, CUL4A / Fold change vs veh, CUL4A / RFU, CCNY / Fold change vs veh, CCNY / RFU, UFL1 / Fold change vs veh, UFL1 / RFU, COG3 / Fold change vs veh, COG3 / RFU, DIAPH2 / Fold change vs veh, DIAPH2 / RFU, SKA2 / Fold change vs veh, SKA2 / RFU, AFF3 / Fold change vs veh, AFF3 / RFU, LMF1 / Fold change vs veh, LMF1 / RFU, IPO11 / Fold change vs veh, IPO11 / RFU, DFFB / Fold change vs veh, DFFB / RFU, FOXP1 / Fold change vs veh, FOXP1 / RFU, CARD8 / Fold change vs veh, CARD8 / RFU, STRN3 / Fold change vs veh, STRN3 / RFU, ADK / Fold change vs veh, ADK / RFU, RASSF2 / Fold change vs veh, RASSF2 / RFU, WIPF1 / Fold change vs veh, WIPF1 / RFU, LARP1B / Fold change vs veh, LARP1B / RFU, RASA1 / Fold change vs veh, RASA1 / RFU, RB1 / Fold change vs veh, RB1 / RFU, PPFIA1 / Fold change vs veh, PPFIA1 / RFU, MAT2A / Fold change vs veh, MAT2A / RFU, CCT5 / Fold change vs veh, CCT5 / RFU, WDR92 / Fold change vs veh, WDR92 / RFU, CUX1 / Fold change vs veh, CUX1 / RFU, TTC7A / Fold change vs veh, TTC7A / RFU, TMEM135 / Fold change vs veh, TMEM135 / RFU, DEPTOR / Fold change vs veh, DEPTOR / RFU, CPM / Fold change vs veh, CPM / RFU, DNAJB6 / Fold change vs veh, DNAJB6 / RFU, CACNA2D3 / Fold change vs veh, CACNA2D3 / RFU, DTX4 / Fold change vs veh, DTX4 / RFU, TFCP2 / Fold change vs veh, TFCP2 / RFU, GMCL1 /// GMCL1P1 / Fold change vs veh, GMCL1 /// GMCL1P1 / RFU, AEBP2 / Fold change vs veh, AEBP2 / RFU, SNHG1 /// SNORD22 /// SNORD25 /// SNORD26 /// SNORD27 /// SNORD28 /// SNORD29 /// SNORD31 / Fold change vs veh, SNHG1 /// SNORD22 /// SNORD25 /// SNORD26 /// SNORD27 /// SNORD28 /// SNORD29 /// SNORD31 / Fold change (Aza/veh), C12orf56 (ProbeSet 11735607_a_at) / Fold change (ACY-1035/veh), C12orf56 (ProbeSet 11735607_a_at) / Fold change (Aza/veh), FGFR1OP (ProbeSet 11751329_s_at) / Fold change (ACY-1035/veh), FGFR1OP (ProbeSet 11751329_s_at) / Fold change (Aza/veh), VPS36 (ProbeSet 11739960_a_at) / Fold change (ACY-1035/veh), VPS36 (ProbeSet 11739960_a_at) / RFU SYPL1 (11715823_x_at) / Fold change /veh SYPL1 (11715823_x_at) / RFU IGFBP7 (11715501_s_at) / Fold change /veh IGFBP7 (11715501_s_at) / RFU REEP3 (11722064_at) / Fold change /veh REEP3 (11722064_at) / RFU IGLL1 (11728026_x_at) / Fold change /veh IGLL1 (11728026_x_at): dose or concentration left out as unconfirmed
Conditions: MV-4-11 cells, 48 hours

Q: `Nc1ccc(-c2cccs2)cc1NC(=O)c1ccc2c(c1)cc(C1CC1)n2CCN1CCOCC1` [ACY-1035] was tested. Which “RFU TMEM136 (11760407_x_at)” value did it give?
A: 15.13 RFU
